The target in experiment [1] is TrpR (tryptophan repressor; TrpR-Wt) (Escherichia coli, UniProt P0A881). Description: isothermal titration calorimetry. Format: binding. On the technique in general: Isothermal titration calorimetry measures the heat released or taken up as one component is titrated into another.
Experiment [2] has as its target TrpR (tryptophan repressor; TrpR-Wt) (Escherichia coli, UniProt P0A881, S88Y). Description: isothermal titration calorimetry. Format: binding.

One may read the Kd as the constant that tells how readily two partners part at equilibrium. A high value points to a looser complex.

`Cc1ccc2[nH]cc(CC(N)C(=O)O)c2c1` (racemic) [5-Met-TRP, 5-Methyl-DL-Tryptophan] showed a Kd in experiment [1] of 62.2 ± 15.6 µM.

As for `O=C(O)Cc1c[nH]c2ccccc12` [IAA, Indole-3-acetic acid], the Kd was determined as 29.3 ± 2.08 µM in experiment [2] and 162 ± 14 µM in experiment [1].

As to `O=C(O)CCCc1c[nH]c2ccccc12` [IBA, Indole-3-butyric acid], the Kd in experiment [2] stood at 10.4 ± 1.25 µM; in experiment [1], 32.7 ± 0.88 µM.

Consider `O=C(O)CCc1c[nH]c2ccccc12` [IPA, Indole-3-propionic acid], for which the results for the Kd in experiment [2] and in experiment [1] were 7.49 ± 0.91 µM and 33.4 ± 1.16 µM, respectively.

Regarding `N[C@@H](Cc1c[nH]c2ccccc12)C(=O)O` [TRP, Tryptophan], the Kd in experiment [1] was determined as 40.3 ± 2.35 µM.

The values are drawn from doi:10.1101/2020.01.20.912972v1 (biorxiv, 2020).
